In brackets after ≈: the same amount, converted by molar mass.
Key:
Assay in all cases: in vitro antibacterial evaluation, MIC by broth dilution
Type in all cases: cell-based
Escherichia coli = conditions: 18 hours at 35° C.
Streptococcus sp. = conditions: broth dilution, 18 hours at 35° C.
Procedure, shortened: (§1)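 MIC = lowest antibiotic concentration preventing visible growth; inoculum 5×10^5 CFU/mL; drug range 64-0.06 μg/mL; Muller-Hinton II […]; NCCLS M7-A2 guidance.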

Staphylococcus sp. = conditions: broth dilution, 18 hours at 35° C.; for MIC Staphylococcus aureus (GC 1131): strain GC 1131; for MIC Staphylococcus aureus (ATCC 29213): strain ATCC 29213; for MIC Staphylococcus aureus (GC 3051): strain GC 3051; for MIC Staphylococcus aureus (GC 3053): strain GC 3053; for MIC Staphylococcus aureus (GC 4541): strain GC 4541; for MIC Staphylococcus aureus (GC 4542): strain GC 4542; for MIC Staphylococcus aureus (GC 4544): strain GC 4544; for MIC Staphylococcus aureus (GC 4545): strain GC 4545
Procedure, shortened: as §1

Enterococcus sp. = conditions: broth dilution, 18 hours at 35° C.
Procedure, shortened: as §1

## CC(c1ccccc1)C1NC(=O)CNC(=O)C(CO)NC(=O)C(C(O)C2CNC(=N)N2C2OC(CO)C(O)C(O)C2O)NC(=O)C(C(O)C2CNC(=N)N2)NC(=O)C(Cc2ccc(OC3OC(CO)C(OC4OC5COC6(CCCCC6C)OC5C(O)C4O)C(O)C3O)cc2)NC1=O (stereo not drawn) [Example 204]
Escherichia coli
  MIC Escherichia coli (ATCC 25922): 128 µg/mL (≈ 92.1 µM)
  MIC Escherichia coli (GC 4559): 128 µg/mL (≈ 92.1 µM)
  MIC Escherichia coli (GC 4560): 4 µg/mL (≈ 2.88 µM)
Streptococcus sp.
  MIC Streptococcus agalactiae (GC 4564): 1 µg/mL (≈ 0.72 µM)
  MIC Streptococcus pneumoniae (ATCC 6301): 0.5 µg/mL (≈ 0.36 µM)
  MIC Streptococcus pneumoniae (GC 1894): 0.25 µg/mL (≈ 0.18 µM)
  MIC Streptococcus pneumoniae (GC 4565): 0.5 µg/mL (≈ 0.36 µM)
  MIC Streptococcus pyogenes (GC 4563): 0.5 µg/mL (≈ 0.36 µM)
Streptococcus sp.; inoculum 5×10^5 CFU/mL, strain ATCC 6301
  MIC Streptococcus pneumoniae (ATCC 6301): 0.5 µg/mL (≈ 0.36 µM)
Streptococcus sp.; inoculum 5×10^5 CFU/mL, strain GC 1894
  MIC Streptococcus pneumoniae (GC 1894): 0.25 µg/mL (≈ 0.18 µM)
Streptococcus sp.; inoculum 5×10^5 CFU/mL, strain GC 4563
  MIC Streptococcus pyogenes (GC 4563): 0.5 µg/mL (≈ 0.36 µM)
Streptococcus sp.; inoculum 5×10^5 CFU/mL, strain GC 4564
  MIC Streptococcus agalactiae (GC 4564): 1 µg/mL (≈ 0.72 µM)
Streptococcus sp.; inoculum 5×10^5 CFU/mL, strain GC 4565
  MIC Streptococcus pneumoniae (GC 4565): 0.5 µg/mL (≈ 0.36 µM)
Staphylococcus sp.; inoculum 5×10^5 CFU/mL
  MIC Staphylococcus aureus (GC 1131): 8 µg/mL (≈ 5.76 µM)
Staphylococcus sp.
  MIC Staphylococcus aureus (ATCC 29213): 4 µg/mL (≈ 2.88 µM)
  MIC Staphylococcus aureus (GC 1131): 8 µg/mL (≈ 5.76 µM)
  MIC Staphylococcus aureus (GC 3051): 4 µg/mL (≈ 2.88 µM)
  MIC Staphylococcus aureus (GC 3053): 8 µg/mL (≈ 5.76 µM)
  MIC Staphylococcus aureus (GC 4541): 4 µg/mL (≈ 2.88 µM)
  MIC Staphylococcus aureus (GC 4542): 4 µg/mL (≈ 2.88 µM)
  MIC Staphylococcus aureus (GC 4544): 8 µg/mL (≈ 5.76 µM)
  MIC Staphylococcus aureus (GC 4545): 4 µg/mL (≈ 2.88 µM)
Staphylococcus sp.; strain GC 4543
  MIC Staphylococcus aureus-SMITH (GC 4543): 4 µg/mL (≈ 2.88 µM)
Staphylococcus sp.; strain GC 4546
  MIC Staphylococcus haemolyticus (GC 4546): 2 µg/mL (≈ 1.44 µM)
Staphylococcus sp.; strain GC 4547
  MIC Coagulase Negative Staphylococcus (GC 4547): 4 µg/mL (≈ 2.88 µM)
Staphylococcus sp.; strain GC 4548
  MIC Coagulase Negative Staphylococcus (GC 4548): 4 µg/mL (≈ 2.88 µM)
Staphylococcus sp.; strain GC 4549
  MIC Coagulase Negative Staphylococcus (GC 4549): 2 µg/mL (≈ 1.44 µM)
Staphylococcus sp.; strain GC 4551
  MIC Coagulase Negative Staphylococcus (GC 4551): 4 µg/mL (≈ 2.88 µM)
Enterococcus sp.
  MIC Enterococcus avium (GC 4558): 16 µg/mL (≈ 11.5 µM)
  MIC Enterococcus faecalis (ATCC 29212): 16 µg/mL (≈ 11.5 µM)
  MIC Enterococcus faecalis (GC 2242): 16 µg/mL (≈ 11.5 µM)
  MIC Enterococcus faecalis (GC 2691): 16 µg/mL (≈ 11.5 µM)
  MIC Enterococcus faecalis (GC 3059): 16 µg/mL (≈ 11.5 µM)
  MIC Enterococcus faecalis (GC 4552): 16 µg/mL (≈ 11.5 µM)
  MIC Enterococcus faecalis (GC 4553): 16 µg/mL (≈ 11.5 µM)
  MIC Enterococcus faecalis (GC 4554): 16 µg/mL (≈ 11.5 µM)
  MIC Enterococcus faecalis (GC 6189): 16 µg/mL (≈ 11.5 µM)
  MIC Enterococcus faecium (GC 2243): 16 µg/mL (≈ 11.5 µM)
  MIC Enterococcus faecium (GC 4556): 16 µg/mL (≈ 11.5 µM)
  MIC Enterococcus faecium (GC 4557): 8 µg/mL (≈ 5.76 µM)
Enterococcus sp.; inoculum 5×10^5 CFU/mL, strain ATCC 29212
  MIC Enterococcus faecalis (ATCC 29212): 16 µg/mL (≈ 11.5 µM)
Enterococcus sp.; inoculum 5×10^5 CFU/mL, strain GC 2242
  MIC Enterococcus faecalis (GC 2242): 16 µg/mL (≈ 11.5 µM)
Enterococcus sp.; inoculum 5×10^5 CFU/mL, strain GC 2243
  MIC Enterococcus faecium (GC 2243): 16 µg/mL (≈ 11.5 µM)
Enterococcus sp.; inoculum 5×10^5 CFU/mL, strain GC 2691
  MIC Enterococcus faecalis (GC 2691): 16 µg/mL (≈ 11.5 µM)
Enterococcus sp.; inoculum 5×10^5 CFU/mL, strain GC 3059
  MIC Enterococcus faecalis (GC 3059): 16 µg/mL (≈ 11.5 µM)
Enterococcus sp.; inoculum 5×10^5 CFU/mL, strain GC 4552
  MIC Enterococcus faecalis (GC 4552): 16 µg/mL (≈ 11.5 µM)
Enterococcus sp.; inoculum 5×10^5 CFU/mL, strain GC 4553
  MIC Enterococcus faecalis (GC 4553): 16 µg/mL (≈ 11.5 µM)
Enterococcus sp.; inoculum 5×10^5 CFU/mL, strain GC 4554
  MIC Enterococcus faecalis (GC 4554): 16 µg/mL (≈ 11.5 µM)
Enterococcus sp.; inoculum 5×10^5 CFU/mL, strain GC 4556
  MIC Enterococcus faecium (GC 4556): 16 µg/mL (≈ 11.5 µM)
Enterococcus sp.; inoculum 5×10^5 CFU/mL, strain GC 4557
  MIC Enterococcus faecium (GC 4557): 8 µg/mL (≈ 5.76 µM)
Enterococcus sp.; inoculum 5×10^5 CFU/mL, strain GC 4558
  MIC Enterococcus avium (GC 4558): 16 µg/mL (≈ 11.5 µM)
Enterococcus sp.; inoculum 5×10^5 CFU/mL, strain GC 6189
  MIC Enterococcus faecalis (GC 6189): 16 µg/mL (≈ 11.5 µM)

## Tri-N-[(phenylmethoxy)carbonyl]-cyclo[glycl-β-methylphenylalanyltyrosyl-3-(2-iminoimidazolidin-4-yl)seryl-3-(3-hexopyranosyl-2-iminoimidazolidin-4-yl)serylseryl] [Example 89]
Escherichia coli
  MIC Escherichia coli (ATCC 25922): >64 µg/mL
  MIC Escherichia coli (GC 4559): >64 µg/mL
  MIC Escherichia coli (GC 4560): 32 µg/mL
Streptococcus sp.
  MIC Streptococcus agalactiae (GC 4564): 32 µg/mL
  MIC Streptococcus pneumoniae (ATCC 6301): 16 µg/mL
  MIC Streptococcus pneumoniae (GC 1894): 4 µg/mL
  MIC Streptococcus pneumoniae (GC 4565): 8 µg/mL
  MIC Streptococcus pyogenes (GC 4563): 32 µg/mL
Streptococcus sp.; strain ATCC 6301
  MIC Streptococcus pneumoniae (ATCC 6301): 16 µg/mL
Streptococcus sp.; strain GC 1894
  MIC Streptococcus pneumoniae (GC 1894): 4 µg/mL
Streptococcus sp.; strain GC 4563
  MIC Streptococcus pyogenes (GC 4563): 32 µg/mL
Streptococcus sp.; strain GC 4564
  MIC Streptococcus agalactiae (GC 4564): 32 µg/mL
Streptococcus sp.; strain GC 4565
  MIC Streptococcus pneumoniae (GC 4565): 8 µg/mL
Staphylococcus sp.
  MIC Coagulase Negative Staphylococcus (GC 4547): 32 µg/mL
  MIC Coagulase Negative Staphylococcus (GC 4548): 64 µg/mL
  MIC Coagulase Negative Staphylococcus (GC 4549): 64 µg/mL
  MIC Coagulase Negative Staphylococcus (GC 4551): 64 µg/mL
  MIC Coagulase Negative Staphylococcus (GC 6257): 32 µg/mL
  MIC Staphylococcus aureus-SMITH (GC 4543): 64 µg/mL
  MIC Staphylococcus haemolyticus (GC 4546): 32 µg/mL
  MIC Staphylococcus aureus (ATCC 29213): 64 µg/mL
  MIC Staphylococcus aureus (GC 1131): 64 µg/mL
  MIC Staphylococcus aureus (GC 3051): 64 µg/mL
  MIC Staphylococcus aureus (GC 3053): 64 µg/mL
  MIC Staphylococcus aureus (GC 4541): 64 µg/mL
  MIC Staphylococcus aureus (GC 4542): 64 µg/mL
  MIC Staphylococcus aureus (GC 4544): 64 µg/mL
  MIC Staphylococcus aureus (GC 4545): 64 µg/mL
Staphylococcus sp.; strain GC 4543
  MIC Staphylococcus aureus-SMITH (GC 4543): 64 µg/mL
Staphylococcus sp.; strain GC 4546
  MIC Staphylococcus haemolyticus (GC 4546): 32 µg/mL
Staphylococcus sp.; strain GC 4547
  MIC Coagulase Negative Staphylococcus (GC 4547): 32 µg/mL
Staphylococcus sp.; strain GC 4548
  MIC Coagulase Negative Staphylococcus (GC 4548): 64 µg/mL
Staphylococcus sp.; strain GC 4549
  MIC Coagulase Negative Staphylococcus (GC 4549): 64 µg/mL
Staphylococcus sp.; strain GC 4551
  MIC Coagulase Negative Staphylococcus (GC 4551): 64 µg/mL
Staphylococcus sp.; strain GC 6257
  MIC Coagulase Negative Staphylococcus (GC 6257): 32 µg/mL
Enterococcus sp.; Enterococcus avium (GC 4558)
  MIC Enterococcus avium (GC 4558): 32 µg/mL
Enterococcus sp.; Enterococcus faecalis (ATCC 29212)
  MIC Enterococcus faecalis (ATCC 29212): 64 µg/mL
Enterococcus sp.; Enterococcus faecalis (GC 4552)
  MIC Enterococcus faecalis (GC 4552): 64 µg/mL
Enterococcus sp.; Enterococcus faecalis (GC 4553)
  MIC Enterococcus faecalis (GC 4553): 64 µg/mL
Enterococcus sp.; Enterococcus faecalis (GC 4554)
  MIC Enterococcus faecalis (GC 4554): 64 µg/mL
Enterococcus sp.; Enterococcus faecalis (GC 6189)
  MIC Enterococcus faecalis (GC 6189): 64 µg/mL
Enterococcus sp.; Enterococcus faecium (GC 2243)
  MIC Enterococcus faecium (GC 2243): 64 µg/mL
Enterococcus sp.; Enterococcus faecium (GC 4556)
  MIC Enterococcus faecium (GC 4556): 64 µg/mL
Enterococcus sp.; Enterococcus faecium (GC 4557)
  MIC Enterococcus faecium (GC 4557): 32 µg/mL
Enterococcus sp.
  MIC Enterococcus avium (GC 4558): 32 µg/mL
  MIC Enterococcus faecalis (ATCC 29212): 64 µg/mL
  MIC Enterococcus faecalis (GC 2242): 64 µg/mL
  MIC Enterococcus faecalis (GC 2691): 64 µg/mL
  MIC Enterococcus faecalis (GC 3059): 64 µg/mL
  MIC Enterococcus faecalis (GC 4552): 64 µg/mL
  MIC Enterococcus faecalis (GC 4553): 64 µg/mL
  MIC Enterococcus faecalis (GC 4554): 64 µg/mL
  MIC Enterococcus faecalis (GC 6189): 64 µg/mL
  MIC Enterococcus faecium (GC 2243): 64 µg/mL
  MIC Enterococcus faecium (GC 4556): 64 µg/mL
  MIC Enterococcus faecium (GC 4557): 32 µg/mL
Enterococcus sp.; strain GC 2242
  MIC Enterococcus faecalis (GC 2242): 64 µg/mL
Enterococcus sp.; strain GC 2691
  MIC Enterococcus faecalis (GC 2691): 64 µg/mL
Enterococcus sp.; strain GC 3059
  MIC Enterococcus faecalis (GC 3059): 64 µg/mL

Source: US6914045B2, “Glycopeptide antibiotics” (Wyeth Holdings Corporation, priority 2001, dated 2005)
